The text below walks through data of article PMC2694220 (Biochemistry, 2009).

As usually defined, the Km is the concentration of substrate that gives half-maximal velocity.

The target of one data set is WbpE (Pseudomonas aeruginosa, UniProt Q9HZ76). The data set can be described thus: capillary electrophoresis, coupled WbpB/WbpE reaction. It is filed as biochemical. The conditions noted are these: 25 mM L-glutamine in place of L-glutamate; otherwise same.
In the next data set the target is WbpB (Pseudomonas aeruginosa, UniProt G3XD23). The data set can be described thus: capillary electrophoresis of conversion to UDP-GlcNAc. Particulars: 10 mM α-KG, 50 mM HEPES pH 8.0, 30 °C, no WbpE. Format: biochemical.
Data set [1] relates to CC(=O)N[C@H]1[C@@H](OP(=O)(O)OP(=O)(O)OC[C@H]2O[C@@H](n3ccc(=O)[nH]c3=O)[C@H](O)[C@@H]2O)O[C@H](C(=O)O)[C@@H](O)[C@@H]1N. The data set can be described thus: purified protein. The conditions noted are these: 1.5 mM AcCoA, 50 mM HEPES pH 7.0, 30 °C, BSA carrier.

Chain of WbpB (G3XD23 whole entry): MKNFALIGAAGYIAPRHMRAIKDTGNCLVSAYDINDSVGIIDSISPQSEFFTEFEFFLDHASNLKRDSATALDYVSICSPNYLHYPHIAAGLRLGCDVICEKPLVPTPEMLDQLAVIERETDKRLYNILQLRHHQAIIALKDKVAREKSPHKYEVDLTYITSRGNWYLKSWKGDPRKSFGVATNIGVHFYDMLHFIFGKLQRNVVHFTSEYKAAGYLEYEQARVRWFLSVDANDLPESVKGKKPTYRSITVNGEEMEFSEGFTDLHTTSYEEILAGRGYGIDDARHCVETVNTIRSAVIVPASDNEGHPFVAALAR
Chain of WbpE (Q9HZ76 whole entry): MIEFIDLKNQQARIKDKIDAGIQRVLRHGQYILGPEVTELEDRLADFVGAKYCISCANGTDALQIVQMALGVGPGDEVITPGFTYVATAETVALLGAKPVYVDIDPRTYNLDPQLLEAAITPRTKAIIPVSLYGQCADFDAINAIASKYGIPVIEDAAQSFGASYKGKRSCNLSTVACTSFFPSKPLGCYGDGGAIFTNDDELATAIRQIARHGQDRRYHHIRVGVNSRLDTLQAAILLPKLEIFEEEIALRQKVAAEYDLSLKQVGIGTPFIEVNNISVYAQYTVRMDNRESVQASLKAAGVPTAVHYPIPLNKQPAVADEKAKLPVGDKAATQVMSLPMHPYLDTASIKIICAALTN

On to `NC(=O)CC[C@H](N)C(=O)O` [L-glutamine], for which the “% conversion at 25 mM” value at WbpE came to 10%.

Take `CC(=O)N[C@H]1[C@@H](OP(=O)(O)OP(=O)(O)OC[C@H]2O[C@@H](n3ccc(=O)[nH]c3=O)[C@H](O)[C@@H]2O)O[C@H](C(=O)O)[C@@H](O)[C@@H]1O` [UDP-GlcNAcA]: at WbpB, the “capillary electrophoresis of conversion to UDP-GlcNAc(3keto)A” value is on record as “complete conversion of the UDP-GlcNAcA starting material to the UDP-GlcNAc(3keto)A product was observed by CE”.

In the case of WbpD (Pseudomonas aeruginosa PAO1), in data set [1], the Michaelis-Menten constant (Km) came to 107 ± 15 µM and the kcat entry is reported as “(2.9 ± 0.12) × 10^3 min^−1”.
